Consider 1 compound from paper PMC8895377, “In Vivo Targeting Replication Protein A for Cancer Therapy” (Frontiers in Oncology, 2022).

The test system of data set [1] is H460 NSCLC cells. Put plainly: CCK-8 viability assay. The data set is classed as cell-based, human. The conditions noted are these: H460, 48 h, compared to 551 predecessor. The method, then: Cell lines were obtained from ATCC and maintained as monolayer cultures in RPMI 1640 medium (H460) or Dulbecco’s Modified Eagle's Medium (DMEM) (A549) supplemented with 10% fetal bovine serum. H460 and A549 cells were plated at 2.5 × 10^3 cells/well and A2780 and GCT27 cells plated at 5 × 10^3 cells/well in a 96-well plate and incubated for 18–24 h prior to treatments. Cells were treated with the indicated concentration of RPAi for 48 h. The vehicle (DMSO) concentration was held constant at 1%. Cell metabolism/viability was assessed by a mitochondrial metabolism assay (CCK-8) as we have described previously ([10]). The generation of the water-soluble formazan product by cellular dehydrogenases is proportional to the number of living cells. Following incubation with CCK-8 reagent, absorbance was measured at 450 nm with a BioTek Synergy H1 plate reader. Values were compared to those of vehicle-treated controls to determine percent viability, and the results represent the average and SEM of triplicate determinations.
(In general: Tetrazolium dyes change colour on reduction, which living cells bring about.)

Data set [2] can be described thus: Chemical stability in lead formulation. The data set is classed as physicochemical. The settings on record: for t90: 10 mg/ml in lead formulation; for predicted time stable: lead formulation; for fourteen-day stability: final formulation. The method, then: With favorable potency, cellular activity, plasma stability, and a clear deficit in PK, we initiated a series of studies to assess and optimize a formulation of 329 for in vivo bioavailability. Here, 329 solubility was assessed in a series of additives, excipients, and co-solvents to identify initial favorable vehicles ( Table 2 ). […] A series of different formulations were assessed. The final formulation consisted of polysorbate 80, N-methyl-2-pyrrolidone (NMP), propylene glycol, and PEG 400 (+1.1 mol. eq. HCl added as 12 M HCl), and 329 was soluble up to 20 mg/ml, and 10-fold dilution in PBS was well dispersed with minimal precipitation.
Figure 7 The 329 in vivo analysis. (A) Stability analysis. Compound stability was assessed over a 14-day time period at varying temperatures as indicated. (B) Pharmacokinetic analysis. Time course of drug plasma concentration over 24 h following drug administration as indicated in legend.

Data set [3] is described as follows: Intrinsic clearance and half-life in rat microsomes. The settings on record: for microsomal CLint: rat, microsomes. The data set is classed as in vitro ADME. From the text: (§1) Toward the goal to identify efficacious and safe RPAi 329 treatment regimens, we conducted single-agent screening in two lung cancer cell line-derived xenograft models. […] Having optimized cellular uptake and solubility via the addition of the propyl morpholino in 329 and 2004, we sought to determine how these modifications impact in vivo anticancer activity using two NSCLC models, A549 adenocarcinoma and H460 large cell carcinoma. […] Analyses of intrinsic clearance and half-life were conducted in mouse and rat microsomes ( Table 1 ). […] These values are less than the rate of 48, which is considered rapid clearance. In rat microsomes, rates of ~64 were obtained for 329 and are less than the rapid rate of 71.

A short description of data set [4]: Intrinsic clearance and half-life in mouse microsomes. The data set is classed as in vitro ADME.
Excerpt: as §1

In data set [5] the test system is H460 NSCLC tumor xenografts. In words: H460 NSCLC xenograft efficacy. The data set is classed as in vivo, mice. The settings on record: 20 mg/kg IP daily for 5 days, 2 days off, repeated 3 times, optimized formulation. From the text: To assess anticancer efficacy, the hind flanks of 60 8–10-week-old Nod SCID gamma (NSG) mice were implanted with the indicated cells (~2 × 10^6) in Matrigel. Tumor volumes were monitored by electronic caliper measurement [tumor volumes = length × (perpendicular width)^2 × 0.5]. NSG studies were approved by the Institutional Animal Care and Use Committee at Indiana University School of Medicine. Male NSG (NOD‐scid/IL2Rg^null) mice (In Vivo Therapeutics Core Facility, IU Simon Comprehensive Cancer Center, Indianapolis, IN, USA) were used and housed in a pathogen‐free facility at IUSM LARC. Mice with tumors of approximately 100 mm^3 were randomized into individual treatment arms. The indicated RPAi was formulated and administered via intraperitoneal injection (IP) at the indicated times. Tumor volumes were monitored biweekly as indicated, and the results are presented as the average tumor volume ± standard error of the mean for each group. […]
Figure 8 In vivo analysis of anticancer activity of 329. (A) Anticancer activity was assessed in human H460 NCSLC tumor xenografts in NOD/SCID mice. Mice were implanted subcutaneously on day 1 with H460 NSCLC cells, tumors were measured by calipers, and mice assigned randomly to treatment arms. […] (C) Tumor weight from A549 cells was determined on day 32. […]

Regarding `CCOc1ccc2cc(C3CC(c4ccc(I)cc4)=NN3C(=O)CCCC(=O)NCCCN3CCOCC3)c(Cl)nc2c1` (stereo not shown) [compound 329], in data set [1], the “single-agent cellular anticancer activity (CCK-8)” value is listed as “potent single-agent activity”. Also, the t90 was 2100 days in data set [2] (5°C (extrapolated)), 140 days in data set [2] (25°C), 26 days in data set [2] (40°C) and 3.2 days in data set [2] (60°C). The predicted time stable result in data set [2] (5°C, extrapolated) is recorded as “over 5 years”; in data set [2] (room temperature), “over 3 months”. Further, the fourteen-day stability entry in data set [2] (extended incubations at 60°C) is on record as “degradation was observed”; in data set [2] (up to 40°C), “very stable”. The half-life in data set [3] (Rat microsomes) was 21.7 min; in data set [4] (Mouse microsomes, read-out: t1/2), 43.9 min; in data set [4] (mouse, rat, microsomes, in mice and rats, read-out: half-lives), 20 to 40 min. Besides, the microsomal CLint in data set [3] (Rat microsomes, read-out: CLint) was 63.8 µL/min/mg; in data set [3] (rat microsomes, read-out: rate of clearance), about 64 µL/min/mg; in data set [4] (Mouse microsomes), 31.7 µL/min/mg. Also, the tumor volume entry in data set [5] is “a decrease in tumor volume was observed starting at day 17”.
